# Measured values reported in publication PMC11371747, “The role of l-leucovorin uptake and metabolism in the modulation of 5-fluorouracil efficacy and antifolate toxicity” (Frontiers in Pharmacology, 2024).
# Columns and labels:
# [1] = system: unselected cell lines with a different pathology; set-up: method as in Van der Wilt and Peters, 1994; settings: large panel of unselected cell lines with a different pathology; ref Van der Wilt and Peters, 1994; cited from earlier work
# [2] = target: T1, reduced folate carrier (RFC/SLC19A1) (Homo sapiens, UniProt P41440); test: Inhibition of RFC-mediated [3H]-l-LV influx in CEM-7A cells; assay type: cell-based; settings: 5 µM [3H]-l-LV, 2 min, 37°C, read-out: Concentration for 50% inhibition of [3H]-l-LV influx (RFC)
# T1 construct: CEM-7A cells, which display 30-fold RFC overexpression relative to wild-type CCRF-CEM cells; endogenous in cells; host or cells: CEM-7A (CCRF-CEM variant, RFC+++ 30-fold)
# T1 sequence (P41440 1-591): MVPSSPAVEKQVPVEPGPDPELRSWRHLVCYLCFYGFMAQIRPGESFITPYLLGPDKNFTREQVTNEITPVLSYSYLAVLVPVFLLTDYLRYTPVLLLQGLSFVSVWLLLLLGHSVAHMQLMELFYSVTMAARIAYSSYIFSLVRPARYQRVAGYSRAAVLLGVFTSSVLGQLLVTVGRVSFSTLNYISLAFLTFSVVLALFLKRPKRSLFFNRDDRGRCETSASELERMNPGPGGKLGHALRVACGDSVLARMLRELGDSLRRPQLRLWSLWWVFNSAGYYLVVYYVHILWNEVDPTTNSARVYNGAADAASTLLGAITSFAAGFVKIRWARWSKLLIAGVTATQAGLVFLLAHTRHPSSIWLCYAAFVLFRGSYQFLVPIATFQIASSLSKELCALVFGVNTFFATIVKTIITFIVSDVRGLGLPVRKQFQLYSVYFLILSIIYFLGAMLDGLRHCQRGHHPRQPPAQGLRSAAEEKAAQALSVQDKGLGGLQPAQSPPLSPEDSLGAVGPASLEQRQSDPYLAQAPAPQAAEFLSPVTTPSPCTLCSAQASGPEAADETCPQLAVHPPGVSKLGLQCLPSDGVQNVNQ
# Protocol: (§1) In order to determine whether the LV isomers were substrates for either folate receptor α (FRα), RFC and/or PCFT, we used model systems with established overexpression of these receptors or transporters ([Westerhof et al., 1995a]; [Westerhof et al., 1995b]; [Lasry et al., 2008]; [Van der Heijden et al., 2009]).
# CEM-7A cells (2 × 10^6) were suspended in 1 mL HBSS and the assay was initiated by addition of 25 μL 200 μM [^3H]-l-LV; 5,000 pmol (i.e., 5 μM final concentration). Incubations proceeded for 2 min at 37°C in the absence and presence of increasing amounts of unlabelled LV/antifolate drug. Blanks consisted of a separate incubation at 4°C or incubation with 100-fold molar excess of unlabelled l-LV. [^3H]-l-LV influx was terminated by adding 9 mL ice-cold HBSS, centrifugation and an additional wash of the cells with 10 mL ice-cold buffer. Cell pellets were then assessed for radioactivity. Relative affinities for RFC are expressed as the concentration of unlabelled drug necessary to inhibit [^3H]-l-LV uptake by 50%.
# folate receptor α (FRα) = target: T2, folate receptor α (FRα) (Homo sapiens, UniProt P15328); test: Intact cell competitive binding assay, displacement of [3H]-folic acid from FRα in KB cells
# T2 construct: endogenous in cells; host or cells: KB cells (FRα++)
# Protocol: as §1
# For FRα we used KB cells ([Westerhof et al., 1995b]). An intact cell binding assay for competitive binding was performed as described previously ([Westerhof et al., 1995a]). Briefly, cells were washed with Hanks balanced salt solution and 6 mM glucose (HBSS, pH 7.4), suspended in 1 mL of this solution (1*10^6 for KB cells) and incubated at 4°C for 15 min with 100 pmol [^3H]-folic acid [(^3H)-FA], in the presence and absence of unlabelled folic acid or LV stereoisomers. Cells were collected by centrifugation and analysed for radioactivity. Relative affinities for FRα were defined as the inverse ratio of compound to displace 50% of radioactive folic acid from FRα. The relative affinity of folic acid was set at 1.
# human PCFT = target: T3, human PCFT (Homo sapiens, UniProt Q96NT5); test: Inhibition of PCFT-mediated [3H]-l-LV influx in CHO/C5-PCFT cells; assay type: cell-based, Chinese hamster (CHO cells); settings: CHO/C5/PCFT cells, 2.5 µM [3H]-l-LV, pH 5.5, 3 min; read-out: Concentration for 50% inhibition of PCFT-mediated [3H]-l-LV influx
# T3 construct: expressed in transfected cells; host or cells: CHO/C5 (RFC-deficient Chinese hamster ovary cells, no PCFT)
# T3 sequence (Q96NT5 1-459): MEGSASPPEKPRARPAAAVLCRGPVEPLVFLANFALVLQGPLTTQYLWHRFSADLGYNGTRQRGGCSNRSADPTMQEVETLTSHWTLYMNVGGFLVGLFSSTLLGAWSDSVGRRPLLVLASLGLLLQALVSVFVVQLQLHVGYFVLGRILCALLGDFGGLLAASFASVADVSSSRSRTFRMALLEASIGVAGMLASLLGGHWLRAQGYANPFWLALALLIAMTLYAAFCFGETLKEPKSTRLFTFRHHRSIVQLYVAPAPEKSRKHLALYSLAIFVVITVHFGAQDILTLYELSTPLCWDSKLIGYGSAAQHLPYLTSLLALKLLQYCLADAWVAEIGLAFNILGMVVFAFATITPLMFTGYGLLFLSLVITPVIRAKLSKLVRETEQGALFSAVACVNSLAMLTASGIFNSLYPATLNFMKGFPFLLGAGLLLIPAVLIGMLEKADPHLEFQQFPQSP
# Protocol: as §1
# The competitive inhibition by 2.5 μM [^3H]-l-LV influx of PCFT was measured essentially as described for the RFC assay, except that the incubation time was 3 min, at pH 5.5 (the optimal pH for PCFT) and pH 7.4 with increasing amounts of unlabelled LV stereoisomers/antifolate drug. For PCFT too, relative affinities were expressed as the concentration of unlabelled drug necessary to inhibit 50% of [^3H]-l-LV influx.
# T2 sequence (P15328 25-257): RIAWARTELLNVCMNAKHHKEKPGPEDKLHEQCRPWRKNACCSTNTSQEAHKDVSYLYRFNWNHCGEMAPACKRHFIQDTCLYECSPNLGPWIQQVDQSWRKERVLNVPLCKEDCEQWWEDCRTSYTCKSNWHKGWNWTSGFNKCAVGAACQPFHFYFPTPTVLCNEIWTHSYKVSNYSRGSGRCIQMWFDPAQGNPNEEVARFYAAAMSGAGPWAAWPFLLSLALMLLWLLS
smiles,measurement,setting,value
Nc1nc2c(c(=O)[nH]1)N(C=O)C(CNc1ccc(C(=O)N[C@@H](CCC(=O)O)C(=O)O)cc1)CN2 (mixture of isomers) [dl-LV],Enhancement of the effect of 5FU by dl-LV,[1],about 2 fold
same,IC50,[2],7.3 µM
same,"50% [3H]-FA displacement, fold lower concentration than l-LV",folate receptor α (FRα),2 fold
same,Relative affinity for FRα,"folate receptor α (FRα); 100 pmol [3H]-FA, inverse ratio of amount of drug displacing 50% of [3H]-FA, FA set to 1",0.041
same,IC50,human PCFT,4.5 µM
